In the supplement of paper PMC10307832:

Columns and labels:
Assay in all cases: relative viability (nuclei count vs DMSO), 5 days (fraction); higher = more cells survive
EKVX = tested on: EKVX
In short: (§1)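 Lung cancer cell lines, seeded in 1536-well plates, were treated the following day by pin tool with a single drug or with five library-drug doses (not always all listed) in √10 steps on top of a fixed anchor-drug dose. Cells were fixed and nuclei stained in one step after 5 days, and nuclei were counted. Relative viability is the nuclei count for treated wells divided by that for vehicle wells, reported as medians of duplicate plates.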

LCLC-97TM1 = tested on: LCLC-97TM1
In short: as §1

NCI-H1437 = tested on: NCI-H1437
In short: as §1

NCI-H1650 = tested on: NCI-H1650
In short: as §1

NCI-H1666 = tested on: NCI-H1666
In short: as §1

NCI-H1792 = tested on: NCI-H1792
In short: as §1

NCI-H1915 = tested on: NCI-H1915
In short: as §1

NCI-H1975 = tested on: NCI-H1975
In short: as §1

NCI-H23 = tested on: NCI-H23
In short: as §1

NCI-H322M = tested on: NCI-H322M
In short: as §1

NCI-H358 = tested on: NCI-H358
In short: as §1

NCI-H441 = tested on: NCI-H441
In short: as §1

NCI-H460 = tested on: NCI-H460
In short: as §1

NCI-H520 = tested on: NCI-H520
In short: as §1

NCI-H596 = tested on: NCI-H596
In short: as §1

NCI-H647 = tested on: NCI-H647
In short: as §1

NCI-H661 = tested on: NCI-H661
In short: as §1

NCI-H727 = tested on: NCI-H727
In short: as §1

NCI-H838 = tested on: NCI-H838
In short: as §1

PC-3 [JPC-3] = tested on: PC-3 [JPC-3]
In short: as §1

SK-LU-1 = tested on: SK-LU-1
In short: as §1

CCNC(=O)c1noc(-c2cc(C(C)C)c(O)cc2O)c1-c1ccc(CN2CCOCC2)cc1 [Luminespib] + C[C@@H](Oc1cc(-c2cnn(C3CCNCC3)c2)cnc1N)c1c(Cl)ccc(F)c1Cl [Crizotinib] (partner 1 µM)
relative viability (EKVX; first compound 0.002 µM): 0.985
relative viability (EKVX; first compound 0.006325 µM): 0.989
relative viability (EKVX; first compound 0.02 µM): 0.97
relative viability (EKVX; first compound 0.06325 µM): 0.472
relative viability (EKVX; first compound 0.2 µM): 0.218
relative viability (LCLC-97TM1; first compound 0.002 µM): 0.417
relative viability (LCLC-97TM1; first compound 0.006325 µM): 0.461
relative viability (LCLC-97TM1; first compound 0.02 µM): 0.157
relative viability (LCLC-97TM1; first compound 0.06325 µM): 0.221
relative viability (LCLC-97TM1; first compound 0.2 µM): 0.22
relative viability (NCI-H1437; first compound 0.002 µM): 0.92
relative viability (NCI-H1437; first compound 0.006325 µM): 0.833
relative viability (NCI-H1437; first compound 0.02 µM): 1.05
relative viability (NCI-H1437; first compound 0.06325 µM): 0.83
relative viability (NCI-H1437; first compound 0.2 µM): 0.478
relative viability (NCI-H1650; first compound 0.002 µM): 0.944
relative viability (NCI-H1650; first compound 0.006325 µM): 0.928
relative viability (NCI-H1650; first compound 0.02 µM): 0.7
relative viability (NCI-H1650; first compound 0.06325 µM): 0.12
relative viability (NCI-H1650; first compound 0.2 µM): 0.134
relative viability (NCI-H1666; first compound 0.002 µM): 1.04
relative viability (NCI-H1666; first compound 0.006325 µM): 0.929
relative viability (NCI-H1666; first compound 0.02 µM): 1.13
relative viability (NCI-H1666; first compound 0.06325 µM): 1
relative viability (NCI-H1666; first compound 0.2 µM): 0.756
relative viability (NCI-H1792; first compound 0.002 µM): 0.981
relative viability (NCI-H1792; first compound 0.006325 µM): 0.906
relative viability (NCI-H1792; first compound 0.02 µM): 0.955
relative viability (NCI-H1792; first compound 0.06325 µM): 0.435
relative viability (NCI-H1792; first compound 0.2 µM): 0.119
relative viability (NCI-H1915; first compound 0.002 µM): 0.952
relative viability (NCI-H1915; first compound 0.006325 µM): 0.897
relative viability (NCI-H1915; first compound 0.02 µM): 0.958
relative viability (NCI-H1915; first compound 0.06325 µM): 0.904
relative viability (NCI-H1915; first compound 0.2 µM): 0.851
relative viability (NCI-H1975; first compound 0.002 µM): 0.975
relative viability (NCI-H1975; first compound 0.006325 µM): 0.99
relative viability (NCI-H1975; first compound 0.02 µM): 0.763
relative viability (NCI-H1975; first compound 0.06325 µM): 0.147
relative viability (NCI-H1975; first compound 0.2 µM): 0.15
relative viability (NCI-H23; first compound 0.002 µM): 0.56
relative viability (NCI-H23; first compound 0.006325 µM): 0.538
relative viability (NCI-H23; first compound 0.02 µM): 0.445
relative viability (NCI-H23; first compound 0.06325 µM): 0.119
relative viability (NCI-H23; first compound 0.2 µM): 0.123
relative viability (NCI-H322M; first compound 0.002 µM): 0.925
relative viability (NCI-H322M; first compound 0.006325 µM): 0.924
relative viability (NCI-H322M; first compound 0.02 µM): 0.718
relative viability (NCI-H322M; first compound 0.06325 µM): 0.898
relative viability (NCI-H322M; first compound 0.2 µM): 0.808
relative viability (NCI-H358; first compound 0.002 µM): 0.699
relative viability (NCI-H358; first compound 0.006325 µM): 0.647
relative viability (NCI-H358; first compound 0.02 µM): 0.608
relative viability (NCI-H358; first compound 0.06325 µM): 0.0797
relative viability (NCI-H358; first compound 0.2 µM): 0.0988
relative viability (NCI-H441; first compound 0.002 µM): 0.884
relative viability (NCI-H441; first compound 0.006325 µM): 0.719
relative viability (NCI-H441; first compound 0.02 µM): 0.904
relative viability (NCI-H441; first compound 0.06325 µM): 0.119
relative viability (NCI-H441; first compound 0.2 µM): 0.109
relative viability (NCI-H460; first compound 0.002 µM): 0.957
relative viability (NCI-H460; first compound 0.006325 µM): 0.705
relative viability (NCI-H460; first compound 0.02 µM): 0.0276
relative viability (NCI-H460; first compound 0.06325 µM): 0.0089
relative viability (NCI-H460; first compound 0.2 µM): 0.0097
relative viability (NCI-H520; first compound 0.002 µM): 0.831
relative viability (NCI-H520; first compound 0.006325 µM): 0.976
relative viability (NCI-H520; first compound 0.02 µM): 0.845
relative viability (NCI-H520; first compound 0.06325 µM): 0.0957
relative viability (NCI-H520; first compound 0.2 µM): 0.0995
relative viability (NCI-H596; first compound 0.002 µM): 1.05
relative viability (NCI-H596; first compound 0.006325 µM): 1
relative viability (NCI-H596; first compound 0.06325 µM): 0.851
relative viability (NCI-H596; first compound 0.2 µM): 0.938
relative viability (NCI-H647; first compound 0.002 µM): 1.22
relative viability (NCI-H647; first compound 0.006325 µM): 1.07
relative viability (NCI-H647; first compound 0.02 µM): 1.15
relative viability (NCI-H647; first compound 0.06325 µM): 0.0916
relative viability (NCI-H647; first compound 0.2 µM): 0.0805
relative viability (NCI-H661; first compound 0.006325 µM): 0.936
relative viability (NCI-H661; first compound 0.02 µM): 1.05
relative viability (NCI-H661; first compound 0.06325 µM): 0.939
relative viability (NCI-H661; first compound 0.2 µM): 0.715
relative viability (NCI-H727; first compound 0.002 µM): 0.757
relative viability (NCI-H727; first compound 0.006325 µM): 0.744
relative viability (NCI-H727; first compound 0.02 µM): 0.739
relative viability (NCI-H727; first compound 0.06325 µM): 0.212
relative viability (NCI-H727; first compound 0.2 µM): 0.204
relative viability (NCI-H838; first compound 0.002 µM): 0.947
relative viability (NCI-H838; first compound 0.006325 µM): 0.78
relative viability (NCI-H838; first compound 0.02 µM): 0.755
relative viability (NCI-H838; first compound 0.06325 µM): 0.285
relative viability (NCI-H838; first compound 0.2 µM): 0.101
relative viability (PC-3 [JPC-3]; first compound 0.002 µM): 1.01
relative viability (PC-3 [JPC-3]; first compound 0.006325 µM): 0.875
relative viability (PC-3 [JPC-3]; first compound 0.02 µM): 0.971
relative viability (PC-3 [JPC-3]; first compound 0.06325 µM): 0.996
relative viability (PC-3 [JPC-3]; first compound 0.2 µM): 0.933
relative viability (SK-LU-1; first compound 0.002 µM): 0.992
relative viability (SK-LU-1; first compound 0.006325 µM): 0.708
relative viability (SK-LU-1; first compound 0.02 µM): 0.574
relative viability (SK-LU-1; first compound 0.06325 µM): 0.176
relative viability (SK-LU-1; first compound 0.2 µM): 0.155
